Where two headings read alike, the source gives them in different places.
Legend:
Type in all cases: cell-based
Ps aeruginosa 10662 = test: Antibacterial activity (MIC) against Ps aeruginosa 10662
P mirabilis C977 = test: Antibacterial activity (MIC) against P mirabilis C977
Klebsiella aerogenes A = test: Antibacterial activity (MIC) against Klebsiella aerogenes A
Staph. aureus Oxford = test: Antibacterial activity (MIC) against Staph. aureus Oxford; conditions: Staphylococcus aureus
E Coli JT 425 = test: Antibacterial activity (MIC) against E Coli JT 425
[1] = Ps aeruginosa 10662, example, read-out: Antibacterial activity (MIC)
[2] = P mirabilis C977, example, read-out: Antibacterial activity (MIC)
[3] = Klebsiella aerogenes A, example, read-out: Antibacterial activity (MIC)
[4] = Staph. aureus Oxford, example, read-out: Antibacterial activity (MIC)
[5] = Pseudomonas aeruginosa, Ps. Aeruginosa 10662, table, read-out: Antibacterial activities (MIC)
[6] = Proteus mirabilis, P. Mirabilis C977, table, read-out: Antibacterial activities (MIC)
[7] = Klebsiella Aerogenes A, table, read-out: Antibacterial activities (MIC)
[8] = Staph Aureus Oxford, table, read-out: Antibacterial activities (MIC)
[9] = Escherichia coli, E. Coli JT 425, table, read-out: Antibacterial activities (MIC)

Row | Compound | MIC (Ps aeruginosa 10662; [1]) [µg/mL] | MIC (P mirabilis C977; [2]) [µg/mL] | MIC (Klebsiella aerogenes A; [3]) [µg/mL] | MIC (Staph. aureus Oxford; [4]) [µg/mL] | MIC (E Coli JT 425; E Coli JT 425, example, read-out: Antibacterial activity (MIC)) [µg/mL] | MIC (Ps aeruginosa 10662; [5]) [µg/mL] | MIC (P mirabilis C977; [6]) [µg/mL] | MIC (Klebsiella aerogenes A; [7]) [µg/mL] | MIC (Staph. aureus Oxford; [8]) [µg/mL] | MIC (E Coli JT 425; [9]) [µg/mL]
1 | CO[C@@]1(NC(=O)[C@H](NC(=O)Nc2cnc(Nc3ccc(S(N)(=O)=O)cc3)nc2O)c2ccccc2)C(=O)N2[C@@H](C(=O)O)C(C)(C)S[C@@H]21 [Example 1, Sodium 6,β-(D-2-[3-[2-(4-aminosulphonylphenylamino)-4-hydroxypyrimidin-5-yl]ureido]-2-phenylacetamido] -6,a-methoxypenicillanate] | 50 | 2.5 | 2.5 | 10 | – | – | – | – | – | –
2 | CO[C@@]1(NC(=O)[C@H](NC(=O)Nc2cnc(Nc3ccc(S(N)(=O)=O)cc3)nc2O)c2ccc(O)cc2)C(=O)N2[C@@H](C(=O)O)C(C)(C)S[C@@H]21 [Example 3, Sodium 6,β-[D-2-[3-[2-(4-aminosulphonylphenylamino)-4-hydroxypyrimidin-5-yl]ureido]-2-(4-hydroxyphenyl)acetamido]-6,a-methoxypenicillanate] | 25 | 1.25 | 0.2 | 50 | 2.5 | – | – | – | – | –
3 | CO[C@@]1(NC(=O)[C@H](NC(=O)Nc2cnc(Nc3ccc(S(N)(=O)=O)cc3)nc2O)c2cccs2)C(=O)N2[C@@H](C(=O)O)C(C)(C)S[C@@H]21 [Example 4, Sodium 6β-[D-2-[3-[2-(4-aminosulphonylphenylamino)-4-hydroxypyrimidin-5-yl]ureido]-2-(thien-2-yl)acetamido]-6,a-methoxypenicillanate.] | – | – | – | – | – | 10 | 1 | 0.2 | 10 | 1
4 | CO[C@@]1(NC(=O)[C@@H](NC(=O)Nc2cnc(Nc3ccc(S(N)(=O)=O)cc3)nc2O)c2cccs2)C(=O)N2[C@@H](C(=O)O)C(C)(C)S[C@@H]21 [Example 5, Sodium 6,β-[L-2-[3-[2-(4 aminosulphonylphenylamino)-4-hydroxy-pyrimidin-5-yl]ureido]-2-thien-2-y-)acetamido]-6α methoxypenicillanate] | – | – | – | – | – | 50 | 2.5 | 1 | 25 | 2.5
5 | CO[C@@]1(NC(=O)C(NC(=O)Nc2cnc(Nc3ccc(S(N)(=O)=O)cc3)nc2O)c2ccco2)C(=O)N2[C@@H](C(=O)O)C(C)(C)S[C@@H]21 (stereo partly drawn) [Example 6, Sodium 6,β-[D,L-2-[3-[2-(4-aminosulphonylphenylamino), -4-hydroxypyrimidin-5-yl]-ureido]-2-(furan-2-yl)acetamido]-6,a-methoxy penicillanate] | – | – | – | – | – | 32 | 2 | 0.12 | 16 | 8
6 | CO[C@@]1(NC(=O)C(NC(=O)Nc2cnc(Nc3ccc(S(N)(=O)=O)cc3)nc2O)c2ccccc2F)C(=O)N2[C@@H](C(=O)O)C(C)(C)S[C@@H]21 (stereo partly drawn) [Example 7, Sodium 6,B-[D,L-2-[3-[2-(4-aminosulphonylphenylamino) -4-hydroxypyrimidin-5-yl]ureido]-2-(2-fluorophenyl)acetamido]-6,a-methoxypenicillanate] | – | – | – | – | – | 16 | 1 | 0.25 | 16 | 1
7 | CO[C@@]1(NC(=O)C(NC(=O)Nc2cnc(Nc3ccc(S(N)(=O)=O)cc3)nc2O)c2ccc(F)cc2)C(=O)N2[C@@H](C(=O)O)C(C)(C)S[C@@H]21 (stereo partly drawn) [Example 8, Sodium 6,B-[D,L-2-[3-[2-(4-aminosulphonylphenylamino)-4-hydroxy-pyrimidin-5-yl]ureido]-2-(4-fluorophenyl)-acetamido]-6,a-methoxypenicillanic.] | – | – | – | – | – | 128 | 8 | 8 | 64 | 16
8 | CO[C@@]1(NC(=O)C(NC(=O)Nc2cnc(Nc3ccc(S(N)(=O)=O)cc3)nc2O)c2ccc(OC(C)=O)c(OC(C)=O)c2)C(=O)N2[C@@H](C(=O)O)C(C)(C)S[C@@H]21 (stereo partly drawn) [Example 9, Sodium 6,B-[D,L-2-[3-[2-(4-aminosulphonylphenylamino)-4-hydroxypyrimidin-5-yl]ureido]-2-(3,4-diacetoxyphenyl)acetamido]-6,a-methoxypenicillanate] | – | – | – | – | – | 1 | 2 | < 0.06 | < 128 | 1

Reference: patent publication EP0091755A1, “Penicillin derivatives, a process for their preparation and compositions containing them” (BEECHAM GROUP PLC, priority 1982, dated 1983)
